Earlier results on two compounds are cited in article PMC9981747, “A covalent BTK ternary complex compatible with targeted protein degradation” (Nature Communications, 2023).

Details of data set [1]: method as in PMID 31879210. The following applies: 1 mg/kg IV; cited from earlier work.
Details of data set [2]: method as in PMID 27274052. The following applies: cited from earlier work.

Turning to `Nc1ncnc2c1c(-c1ccc(Oc3ccccc3)cc1)nn2C1CCN(CCOCCOCCOc2ccc3c(c2)CN(C2CCC(=O)NC2=O)C3=O)CC1` (stereo not drawn) [SJF620], the exposure result in data set [1] is “micromolar exposures”.

The Cmax is the peak of the concentration-time curve. As to `Cc1ncsc1-c1ccc([C@H](C)NC(=O)[C@@H]2C[C@@H](O)CN2C(=O)[C@@H](NC(=O)COCCCOCCNC(=O)C[C@@H]2N=C(c3ccc(Cl)cc3)c3c(sc(C)c3C)-n3c(C)nnc32)C(C)(C)C)cc1` [ARV-771], the “concentrations in sub-chronic tumor growth inhibition study” value in data set [2] (in 4 of 8 rodents tested) is greater than 2000 nM. In addition, in data set [2] (single 10 mg/kg sc dose, read-out: plasma Cmax), the Cmax was roughly 1700 nM.
